Measurements as given in PMC7949139, “The molecular basis of OH-PCB estrogen receptor activation” (The Journal of Biological Chemistry, 2021).
Residue numbers refer to the chain shown, from its start.

Experiments:
Assay type in all cases: biochemical
[1] = molecular target: T1, spin-labeled SULT1E1, spin label attached at Cys residue 16 (C69S/G16C) (Homo sapiens, UniProt P49888, C69S/G16C); assay: Initial-rate studies, spin-labeled construct (label at Cys 16); conditions: spin label at Cys 16; parentheses = one SD; read-out: Ki OH-PCB1
T1 construct: E. coli codon-optimized SULT1E1 coding region inserted into the PreScission Protease cleavage site; His/GST/MBP triple tag (N, cleaved yes); made in house; host or cells: E. coli BL21(DE3)
T1 sequence (P49888 1-294 G16C/C69S): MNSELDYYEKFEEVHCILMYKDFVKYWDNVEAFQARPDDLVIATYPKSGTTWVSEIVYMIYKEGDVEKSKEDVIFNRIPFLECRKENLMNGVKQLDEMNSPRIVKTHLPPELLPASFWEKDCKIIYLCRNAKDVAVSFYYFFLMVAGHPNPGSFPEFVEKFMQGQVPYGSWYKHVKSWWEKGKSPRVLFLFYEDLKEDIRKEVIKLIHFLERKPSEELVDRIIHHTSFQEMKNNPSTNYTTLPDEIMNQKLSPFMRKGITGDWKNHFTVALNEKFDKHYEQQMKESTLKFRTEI
Experimental: (§1) Spin labels were attached to the SULT1E1 scaffold at Cys residues that were site-specifically incorporated via PCR-based mutagenesis. Prior to creating spin-label attachment constructs, reactive Cys was removed from the native scaffold. Only one of the four native SULT1E1 Cys (i.e., C69) reacts with DTNB ([39]), and mutagenic conversion of C69 to ser produced a stable, fully active non-DTNB-reactive scaffold. Five individual cys-attachment constructs were prepared from the C69S mutant (G16C, K25C, N150C, Q163C, and N233C). Mutants were labeled (see, Experimental procedures) and the initial rate parameters (kcat, Km and Ki) of each spin-labeled mutant were determined (see, Experimental procedures, Initial-Rate studies) to evaluate whether the catalytic integrity of the constructs had been compromised by the insertions and/or spin label attachments. […]
(§2) Labels (N-cyclohexylmale-imide or 3-maleimido-PROXYL) were added in 20-fold excess over reactive cysteine to a solution containing SULT1E1 construct (50 μM active sites), 0.50 mM PAP, and 50 mM KPO4 (pH 7.4), 25 °C ± 2 deg. […] The reactions were monitored by using DTNB to measure unreacted cysteine and were considered complete when >98% of the cysteine had reacted (∼3 h).
(§3) C. Reaction progress was monitored via the fluorescence change associated with 1-HP sulfonation (λex = 325 nm, λem = 370 nm ([51], [52])). […]

[2] = molecular target: T2, spin-labeled SULT1E1, spin label attached at Cys residue 233 (C69S/N233C) (Homo sapiens, UniProt P49888, C69S/N233C); assay: Initial-rate studies, spin-labeled construct (label at Cys 233); conditions: spin label at Cys 233; parentheses = one SD; read-out: Ki OH-PCB1
T2 construct: E. coli codon-optimized SULT1E1 coding region inserted into the PreScission Protease cleavage site; His/GST/MBP triple tag (N, cleaved yes); made in house; host or cells: E. coli BL21(DE3)
T2 sequence (P49888 1-294 C69S/N233C): T1 sequence (P49888 1-294 G16C/C69S) with C16G, N233C
Experimental: as §1, §2, §3

SULT1E1 F75A = molecular target: T3, SULT1E1 F75A (Homo sapiens, UniProt P49888, F75A); assay: Initial-rate studies (1-HP sulfonation; OH-PCB1 inhibition), F75A mutant
T3 construct: E. coli codon-optimized SULT1E1 coding region inserted into the PreScission Protease cleavage site; His/GST/MBP triple tag (N, cleaved yes); made in house; host or cells: E. coli BL21(DE3)
T3 sequence (P49888 1-294 F75A): T1 sequence (P49888 1-294 G16C/C69S) with C16G, S69C, F75A
Experimental: (§4) C. Reaction progress was monitored via the fluorescence change associated with 1-HP sulfonation (λex = 325 nm, λem = 370 nm ([51], [52])). Initial rates were measured during conversion to product of ≤5% of the concentration-limiting substrate consumed at the reaction endpoint. Velocities were determined in triplicate. Km and kcat were obtained by (1/v^4)-weighted least-squares fitting of the averaged data in double-reciprocal space (i.e., 1/v versus 1/[S]) ([66], [67]).
(§5) Inhibition studies were performed as described above except: 1-HP was fixed (2.0 μM, 100 × Km), OH-PCBs were added (0.20–20 × Ki), and SULT1E1 was 0.20 nM (active sites). Ki was determined by least-squares fitting to a noncompetitive inhibition model ([66], [67]).

SULT1E1 F80A = molecular target: T4, SULT1E1 F80A (Homo sapiens, UniProt P49888, F80A); assay: Initial-rate studies (1-HP sulfonation; OH-PCB1 inhibition), F80A mutant
T4 construct: E. coli codon-optimized SULT1E1 coding region inserted into the PreScission Protease cleavage site; His/GST/MBP triple tag (N, cleaved yes); made in house; host or cells: E. coli BL21(DE3)
T4 sequence (P49888 1-294 F80A): T1 sequence (P49888 1-294 G16C/C69S) with C16G, S69C, F80A
Experimental: as §4, §5

SULT1E1 Y239A = molecular target: T5, SULT1E1 Y239A (Homo sapiens, UniProt P49888, Y239A); assay: Initial-rate studies (1-HP sulfonation; OH-PCB1 inhibition), Y239A mutant
T5 construct: E. coli codon-optimized SULT1E1 coding region inserted into the PreScission Protease cleavage site; His/GST/MBP triple tag (N, cleaved yes); made in house; host or cells: E. coli BL21(DE3)
T5 sequence (P49888 1-294 Y239A): T1 sequence (P49888 1-294 G16C/C69S) with C16G, S69C, Y239A
Experimental: as §4, §5

[3] = noncompetitive inhibition model, parentheses = one SD

Compound: Oc1ccc(-c2c(Cl)cccc2Cl)cc1 [OH-PCB1, 4ʹ-OH-2,6-dichlorobiphenol]
- Ki [1]: 63 nM
- Ki [2]: 58 nM
- Fold Effect = Ki OH-PCB1/Ki OH-PCB1 WT (SULT1E1 F75A): 11
- Ki (SULT1E1 F75A; [3]): 630 nM
- Fold Effect = Ki OH-PCB1/Ki OH-PCB1 WT (SULT1E1 F80A): 12
- Ki (SULT1E1 F80A; [3]): 730 nM
- Fold Effect = Ki OH-PCB1/Ki OH-PCB1 WT (SULT1E1 Y239A): 5.7
- Ki (SULT1E1 Y239A; [3]): 340 nM
